Experiments:
cerebral ischemia = test system: cerebral ischemia; design: method as in PMID 26241908; conditions: 0.05 and 0.1 mg/kg intraperitoneal at onset of reperfusion; cited from earlier work
[1] = test system: transient forebrain ischemia; assay: Long-term behavioral tests in Y maze (exploration, spatial recognition, spatial memory); type: in vivo, male Wistar rats; conditions: 0.05 mg/kg iv at reperfusion onset, 11 weeks after ischemic reperfusion
Protocol: For the long-term studies, animals were subjected to behavioral tests, in order to assess their spontaneous spatial alternation and spatial memory skills, as markers of neurological damage present in longer periods, after the surgical procedure. According to previous literature, we selected the Y maze, in which both the exploration activity (spatial recognition) and spatial memory were evaluated.
For the exploration activity and spatial recognition, control animals and ischemic animals treated with the vehicle or ISQ-201 were placed in the center of the maze and let to explore for 8 min. The total number of arms that the animal entered indistinctly (number of arm entries) and the times that the animal explored consecutively—the three different arms of the maze (number of alternations or triads)—were registered by an observer blind to the treatment.
For the assessment of spatial memory, the control animals and ischemic animals treated with the vehicle or ISQ-201 were placed into one of the arms of the Y maze (start arm) and were allowed to explore the maze with one of the arms closed for 10 min (training trial). After 1 h, the rats were returned to the Y maze by placing them in the start arm and allowing them to freely explore all three arms of the maze for 3 min. The arm of the first choice of entry, the new or old, was registered manually by an observer blind to the treatment.

[2] = test system: transient forebrain ischemia, cortex and hippocampal CA1; assay: Global cerebral ischemia (4VO), dose-response curve of neuroprotection; type: in vivo, male Wistar rats; conditions: for EC50 of neuroprotection from dose-response curve: 5 days of reperfusion
Protocol: Transient forebrain ischemia was induced in adult male Wistar rats (10–12 weeks, Charles River) by the standard four-vessel occlusion model (4VO) described previously. Briefly, both vertebral arteries were irreversibly occluded by electrocoagulation under anesthesia, with a mixture of atropine, ketamine, and diazepam (0.25, 62.5, and 5 mg/kg, respectively) delivered through intraperitoneal injection. After 24 h, ischemia was induced by carotid occlusion with atraumatic clips, for 15 min, and then the clips were removed from the carotid arteries to allow reperfusion. Body temperature was maintained at 37 °C during the surgical procedure. The animals were studied after 5 days of reperfusion (R5d) after which they were sacrificed. Sham control animals were prepared in the same way, without carotid occlusion. We performed a power analysis (http://www.biomath.info/power/ttest.htm) to determine the sample size. Significance level and statistical power were set at 0.05 and 0.8 (80%), respectively, which afforded a sample size of […] subjects per group. The treatments were administered with concealed allocation, and in randomized order, according to a computer-generated randomization program. […]
Figure 2 Dose-response curve of ISQ-201. Ischemic animals were treated with a vehicle or ISQ-201 (range 0.01–0.1 mg/kg) by an intravenous injection, at the onset of reperfusion after global cerebral ischemia, and ISQ-201 effect was evaluated by assessing the neuronal death at 5 days of reperfusion (R5d). […] Fluoro-Jade-positive dead neurons were visualized by fluorescence microscopy (in green) in the hippocampal CA1 (CA1) and cortical (C) regions (images), and counted, as described in Materials and Methods (bar graph). (b) Brain sections as in (a) were used for apoptosis detection by TUNEL assay after fixation, and were visualized by fluorescence microscopy (in green) in the CA1 and C regions (images). TUNEL-positive cells were counted in the CA1 and C regions, as described in the Materials and Methods (bar graph). […]

## CC(C)[C@H]1CC[C@H]2[C@@H]3CCC4=C/C(=[N+](\C)[O-])CC[C@]4(C)[C@H]3CC[C@]12C [ISQ-201]
Cerebral ischemia
  neuronal death, apoptosis and neurodeficit score: significant decreases
[1]
  spatial memory (new arm as first choice), Y maze: recovery of values similar to the control group
[1]; vs control group
  exploration activity (number of arm entries), Y maze: no significant differences with the control group
  spatial recognition (number of alternations or triads), Y maze: no significant differences
[2]; cortex, iv 0.01–0.1 mg/kg at reperfusion onset
  EC50 of neuroprotection from dose-response curve: 0.015 mg/kg
[2]; hippocampal CA1, iv 0.01–0.1 mg/kg at reperfusion onset
  EC50 of neuroprotection from dose-response curve: 0.025 mg/kg
[2]; iv, doses 0.01–0.1 mg/kg, after 5 days of reperfusion
  most effective dose in decreasing neuronal death and apoptosis: 0.05 mg/kg
